# Read-outs that look alike come from different tables or passages of the source.
# Key:
# [1] = system: barley powdery mildew fungus (Erysiphe graminis); experiment: Test Example 2: control effect against barley powdery mildew by foliage application; format: in vivo; conditions: wettable powder diluted to 100 ppm, 10 mL per pot foliage spray on barley; inoculated day after; 7 days after inoculation
# [2] = system: rice blast fungus (Pyricularia grisea); format: in vivo; conditions: flowable 5,000 ppm, 50 mL irrigation of nursery box, paddy rice; inoculated after 3 weeks; 7 days after inoculation
# [3] = system: rice blast fungus (Pyricularia grisea); format: in vivo; conditions: 5 g of granule on nursery box, paddy rice; inoculated after 3 weeks; 7 days after inoculation
# [4] = system: rice blast fungus (Pyricularia grisea); format: in vivo; conditions: flowable 1,000 ppm, 1 mL dripped in paddy water, inoculated after 1 week, 7 days after inoculation
# [5] = system: rice sheath blight fungus (Thanatephorus cucumeris); experiment: Test Example 8: control effect against rice sheath blight by box treatment (granule); conditions: 5 g of granule on nursery box, paddy rice; inoculated after 3 weeks; 7 days after inoculation
# [6] = system: rice sheath blight fungus (Thanatephorus cucumeris); experiment: Test Example 6: control effect against rice sheath blight by box treatment (flowable formulation); conditions: flowable 5,000 ppm, 50 mL irrigation of nursery box, paddy rice; inoculated after 3 weeks; 7 days after inoculation
# Method: Control value (%)=[1−(lesion height in sprayed plot/lesion height in unsprayed plot)]×100 (d)
# By irrigation, 50 mL of a diluted solution (5,000 ppm) of a flowable prepared according to Formulation Example-3 was applied to a 2.5-leaf-stage paddy rice (variety: Asahi) seedling raised using a nursery box ( 1/10 the area of standard nursery box in size: 12 cm×15 cm×height 4 cm) within a greenhouse. The formulation-treated paddy rice seedling was immediately transplanted at 5 seedlings/pot into a pot ( 1/10000 are in size) filled with paddy soil (flooded). After growing for 3 weeks within a greenhouse, a culture of rice sheath blight fungus (Thanatephorus cucumeris) grown in advance on a rice straw medium was inoculated into the root of the formulation-treated paddy rice, and disease development was promoted in an artificial weather chamber at 26° C. (relative humidity=100%). Seven days after the inoculation, the rice sheath blight lesion height (height from the root) was examined, and the control value (%) was calculated according to formula (d). […] This test was performed with three replications, each consisting of one plot and one pot, per one formulation plot, and its average evaluation value of control effect was determined.
# [7] = system: rice sheath blight fungus (Thanatephorus cucumeris); experiment: Test Example 10: control effect against rice sheath blight by water surface application (flowable formulation); conditions: flowable 1,000 ppm, 1 mL dripped in paddy water, inoculated after 1 week, 7 days after inoculation
SMILES,"evaluation value of control effect (from control value, lesion area percentage) [1]","evaluation value of control effect (from control value, number of lesions) [2]","evaluation value of control effect (from control value, number of lesions) [3]","evaluation value of control effect (from control value, number of lesions) [4]","evaluation value of control effect (from control value, lesion height) [5]","evaluation value of control effect (from control value, lesion height) [6]","evaluation value of control effect (from control value, lesion height) [7]"
Cc1nc(C(F)F)c(C(=O)N(C(=O)c2snnc2C(F)F)c2ccccc2C(C)CC(C)C)s1 (stereo not drawn) [7-176],5,5,5,5,5,5,5
Cc1nc(C(F)F)c(C(=O)N(C(=O)c2cc(Cl)nc(Cl)c2)c2ccccc2C(C)CC(C)C)s1 (stereo not drawn) [7-188],4,5,5,5,5,5,5
Cc1nc(C(F)F)c(C(=O)N(C(=O)c2sc(C)nc2C(F)F)c2ccccc2CCC(C)C)s1 [7-237],4,5,5,5,5,5,5
Cc1nc(C(F)F)c(C(=O)N(C(=O)c2scnc2C(F)(F)F)c2ccccc2C(C)CC(C)C)s1 (stereo not drawn) [7-250],4,5,5,5,5,5,5
Cc1nc(C(F)F)c(C(=O)N(C(=O)c2cccnc2C(F)F)c2ccccc2C(C)CC(C)C)s1 (stereo not drawn) [7-270],4,5,5,5,5,5,5
Cc1nc(C(F)F)c(C(=O)N(C(=O)c2cc(Cl)c(Cl)s2)c2ccccc2C(C)CC(C)C)s1 (stereo not drawn) [7-274],4,5,5,5,5,5,5
Cc1nc(C(F)F)c(C(=O)N(C(=O)c2onc(Cl)c2Cl)c2ccccc2C(C)CC(C)C)s1 (stereo not drawn) [7-277],5,5,5,5,5,5,5
Cc1ncc(C(=O)N(C(=O)c2cc(Cl)no2)c2ccccc2C(C)CC(C)C)s1 (stereo not drawn) [7-278],4,5,5,5,5,5,5
Cc1nc(C(F)(F)F)c(C(=O)N(C(=O)c2snnc2C)c2c(Br)cc(OC(F)(F)F)cc2Br)s1 [7-280],4,5,5,5,5,5,5
Cc1nc(C(F)(F)F)c(C(=O)N(C(=O)c2snnc2C(F)F)c2c(Br)cc(OC(F)(F)F)cc2Br)s1 [7-281],4,5,5,5,5,5,5
Cc1nc(C(F)(F)F)c(C(=O)N(C(=O)c2scnc2C(F)F)c2c(Br)cc(OC(F)(F)F)cc2Br)s1 [7-283],4,5,5,5,5,5,5
Cc1nc(C(F)F)c(C(=O)N(C(=O)c2cc(F)nc(F)c2)c2ccccc2C(C)CC(C)C)s1 (stereo not drawn) [7-288],4,5,5,5,5,5,5
Cc1nnsc1C(=O)N(C(=O)c1cccnc1C(F)F)c1ccccc1C(C)CC(C)C (stereo not drawn) [13-10],5,5,5,5,5,5,5
CC(C)CC(C)c1ccccc1N(C(=O)c1cccnc1C(F)F)C(=O)c1cccc2nnsc12 (stereo not drawn) [13-16],4,5,5,5,5,5,5
CC(C)CC(C)c1ccccc1N(C(=O)c1cccnc1C(F)F)C(=O)c1onc(Cl)c1Cl (stereo not drawn) [13-49],5,5,5,5,5,5,5

# Reference: patent US20210007356A1, “IMIDE DERIVATIVE AND FUNGICIDE CONTAINING SAID DERIVATIVE AS ACTIVE INGREDIENT” (HOKKO CHEMICAL INDUSTRY CO., LTD., priority 2018, published 2021)
